Patent US10851097B2, “4,5,6,7-tetrahydro-1H-imidazo[4,5-c]pyridine and 1,4,5,6,7,8-hexahydroimidazo[4,5-d]azepine derivatives as janus kinase inhibitors” (Topivert Pharma Limited, priority 2015, dated 2020)
Converted amounts (≈) assume the structure as drawn. Read-outs that look alike come from different tables or passages of the source.

What was measured:
Jurkat cells = test: Cell cytotoxicity assay in Jurkat cells (assay (c)); assay type: cell-based, human; settings: 24 h, propidium iodide, normalised to DMSO control
Description: (c) Cell Cytotoxicity Assay
1×10^5 Jurkat cells (immortalised human T lymphocytes) are added to the appropriate number of wells of a 96 well plate in 100 μL of media (RPMI supplemented with 10% foetal bovine serum). 1 μL of DMSO control (final concentration 1.0% v/v) or test compound (final concentration 20, 5 or 1 μg/mL) is added to the wells and incubated at 37° C., 5% CO2. After 24 hours, the plate is centrifuged at 1200 rpm for 3 minutes and the supernatant discarded. Cells are then resuspended in 150 μL (final concentration 7.5 μg/mL) of propidium iodide (PI) in PBS and incubated at 37° C., 5% CO2 for 15 minutes. After 15 minutes, cells are analysed by flow cytometry (BD accuri) using the FL3 window. The % viability is calculated as the % of cells that are PI negative in the test wells normalised to the DMSO control.

JAK3 = target: T1, JAK3 (Homo sapiens, UniProt P52333); test: KINOMEscan enzyme binding assay (DiscoveRx), JAK3; settings: read-out: Dissociation Constant JAK3
T1 construct: purchased DiscoveRx (LeadHunter Discover Services, KINOMEscan)
Description: (§1) These assays may be conducted by DiscoveRx (formerly Ambit; San Diego, Calif.). The percentage inhibition produced by incubation with a test compound may be calculated relative to the non-inhibited control.

[1] = Solubility in fasted-state simulated colonic fluid (FaSSCoF) at pH 6.5; assay type: physicochemical; settings: 25 °C, pH 6.5, fassgf or other biorelevant, thermodynamic from solid, pH 6.5, 25° C., Run 1, read-out: pH 6.5 FaSSCoF Solubility Run 1
Description: The solubilities of compounds of the invention in FaSSCoF at pH 6.5 are determined using a modification of a previously-reported procedure (Vertzoni, M., et al. Pharm. Res. 2010, 27, 2187-2196). In place of the bile salt extract employed in the original procedure (which extract is no longer available), the modified procedure uses a mixture of sodium taurochlorate (0.15 g), glycocholic acid (0.15 g), ursodeoxycholic acid (0.05 g), cholic acid (0.05 g), and glycodeoxycholic acid (0.05 g). These five bile acids are ground together with a mortar and pestle to produce a fine white powder that is incorporated into the FaSSCoF, as outlined below.
Tris(hydroxymethyl)aminomethane (Tris; 0.275 g) and maleic acid (0.44 g) are dissolved in water (35 mL) to give a solution whose pH is adjusted to 6.5 by treatment with 0.5M NaOH (ca. 12 mL). The solution is then made up to 50 mL with water. A portion of this Tris/maleate buffer solution (ca. 25 mL) is added to a 0.5 L round-bottomed flask, before being treated with 0.00565 g of the bile acid mixture described above. Solutions of phosphatidylcholine (0.0111 g) in DCM (0.15 mL) and palmitic acid (0.0013 g) in DCM (0.15 mL) are added, then the organic solvent is evaporated off under reduced pressure at 40° C. until a clear solution, with no perceptible DCM odour, is achieved. The volume of the evaporated solution is adjusted to 50 mL by addition of the remainder of Tris/maleate buffer, then BSA (0.115 g) is added, before being dissolved by gentle agitation.
Test compounds are suspended in the pH 6.5 FaSSCoF medium to give a maximum final concentration of 2-10 mg/mL. The suspensions are equilibrated at 25° C. for 24 h, before being filtered through a glass fibre C filter. The filtrates are then diluted as appropriate for injection and quantification by HPLC with reference to a standard. Different volumes of the standard, diluted and undiluted sample solutions are injected and the solubilities are calculated using the peak areas determined by integration of the peak found at the same retention time as the principal peak in the standard injection.

[2] = system: CD3/IL2 stimulated PBMC cells; test: IFNγ release from CD3/IL2 stimulated PBMC cells (assay (a)); assay type: cell-based; settings: Homo sapiens, CD3/IL2 stimulation, 48 h, ELISA
Description: (a) IFNγ Release from CD3/IL2 Stimulated PBMC Cells
PBMCs from healthy subjects are separated from whole blood using a density gradient (Lymphoprep, Axis-Shield Healthcare). Cells are added to a 96 well plate, and compound at the desired concentration added 2 hours prior to stimulation with a mixture of monoclonal antibody to CD3 (1 μg/ml, eBioscience) and human recombinant IL2 (10 ng/ml, Peprotech). After 48 hours incubation under normal tissue culture conditions, supernatants are collected and IFNγ release determined by Sandwich ELISA (Duo-set, R&D System). The IC50 is determined from the dose response curve.

JAK2 = target: T2, JAK2 (Homo sapiens, UniProt O60674); test: KINOMEscan enzyme binding assay (DiscoveRx), JAK2; settings: read-out: Dissociation Constant JAK2
T2 construct: purchased DiscoveRx (LeadHunter Discover Services, KINOMEscan)
Description: as §1

[3] = Systemic pharmacokinetics and total colon tissue distribution after single oral administration in mice; assay type: in vivo, male C57BL/6 mice; settings: for Kp: total colon tissue / plasma, po, 10 mg/kg
Description: Studies were conducted by Sai Life Sciences (Hinjewadi, Pune, India) to investigate the systemic pharmacokinetics and total colon tissue distribution of compounds of the invention following a single oral administration in male C57BL/6 mice.
A group of twenty four male mice were administered with a solution of test compound formulated at a dose of 10 mg/10 mL/kg in aqueous hydroxypropyl-β-cyclodextrin (20% w/v in water). Blood samples (approximately 60 μL) were collected from retro-orbital plexus of each mouse under light isoflurane anaesthesia such that the samples were obtained at 0.5, 1, 2, 4, 6, 8, 12 and 24 hr. The blood samples were collected from a set of three mice at each time point in a labeled micro centrifuge tube containing K2EDTA as anticoagulant. Plasma samples were separated by centrifugation at 4000 rpm for 10 min and stored below −70° C. until bioanalysis. After collection of blood sample, animals were humanely euthanized by carbon dioxide asphyxiation to collect total colon tissues. The colons were flushed with cold PBS (pH7.4) to remove contents. The total colon tissues were homogenized with cold PBS (pH7.4) of twice the weight of colon tissue and stored below −70° C. Total volume was three times the total colon tissue weights. All samples were processed for analysis by protein precipitation using acetonitrile and analyzed with a fit-for-purpose LC-MS/MS method. Pharmacokinetic parameters were calculated using the non-compartmental analysis tool of Phoenix WinNonlin® (Version 6.3).

[4] = male, C57BL/6, mouse, oral 10 mg/kg, plasma, read-out: Mean plasma concentration
[5] = male, C57BL/6, mouse, total colon tissue, oral 10 mg/kg, total colon, read-out: Total colon level

T1 sequence (P52333 813-1124 limits assumed): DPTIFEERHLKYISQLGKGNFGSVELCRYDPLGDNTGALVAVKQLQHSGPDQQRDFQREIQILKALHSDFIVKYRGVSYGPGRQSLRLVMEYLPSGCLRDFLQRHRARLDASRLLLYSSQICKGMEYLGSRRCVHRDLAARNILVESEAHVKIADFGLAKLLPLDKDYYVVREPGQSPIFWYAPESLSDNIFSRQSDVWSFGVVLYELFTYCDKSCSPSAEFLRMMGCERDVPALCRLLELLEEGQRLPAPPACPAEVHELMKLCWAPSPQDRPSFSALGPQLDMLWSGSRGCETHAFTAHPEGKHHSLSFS
T2 sequence (O60674 840-1132 limits assumed): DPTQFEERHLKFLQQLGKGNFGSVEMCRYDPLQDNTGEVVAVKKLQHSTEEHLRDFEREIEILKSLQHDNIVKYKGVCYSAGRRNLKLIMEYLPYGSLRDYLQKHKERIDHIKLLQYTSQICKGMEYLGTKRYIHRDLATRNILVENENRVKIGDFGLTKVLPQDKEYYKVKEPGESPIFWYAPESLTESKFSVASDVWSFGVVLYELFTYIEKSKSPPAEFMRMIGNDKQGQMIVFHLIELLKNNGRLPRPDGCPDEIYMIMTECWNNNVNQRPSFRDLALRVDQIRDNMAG

CCc1cc(O)c(F)cc1-c1ccc2c(-c3nc4c([nH]3)CCN(C(=O)c3cnc(N(C)CCN5CCCC5=O)cn3)C4)n[nH]c2c1 [Example 2(k), 1-(2-((5-(2-(6-(2-ethyl-5-fluoro-4-hydroxyphenyl)-1H-indazol-3-yl)-4,5,6,7-tetrahydro-1H-imidazo[4,5-c]pyridine-5-carbonyl)pyrazin-2-yl)(methyl)amino)ethyl)pyrrolidin-2-one]
% viability at 1 μg/mL (Jurkat cells): 93% | Kd (JAK3): 0.092 nM | solubility thermodynamic at 24 h [1]: 10 µg/mL (≈ 16 µM) | IC50 [2]: 9.9 nM | Kd (JAK2): 0.047 nM | concentration at 0.5 h [3, 4]: 2.4 ng/mL | concentration at 1 h [3, 4]: 2.6 ng/mL | concentration at 2 h [3, 4]: 1.9 ng/mL | concentration at 4 h [3, 4]: 1.1 ng/mL | concentration at 6 h [3, 4]: 3.4 ng/mL | concentration at 8 h [3, 4]: 4.8 ng/mL | concentration at 12 h [3, 4]: 1.2 ng/mL | concentration at 24 h [3, 4]: 0 ng/mL | AUC(0-t) ([3]; male, C57BL/6, mouse, oral 10 mg/kg, plasma, read-out: AUC0-24 h P (plasma)): 20 ng·h/mL | Cmax ([3]; male, C57BL/6, mouse, oral 10 mg/kg, plasma, read-out: Cmax P (plasma)): 4.8 ng/mL | Kp ([3]; male, C57BL/6, mouse, read-out: AUC0-24 h ratio (total colon to plasma)): 4850 | Kp ([3]; male, C57BL/6, mouse, read-out: Cmax ratio (total colon to plasma)): 3170 | concentration at 0.5 h [3, 5]: 431 ng/g | concentration at 1 h [3, 5]: 1160 ng/g | concentration at 2 h [3, 5]: 5450 ng/g | concentration at 4 h [3, 5]: 7230 ng/g | concentration at 6 h [3, 5]: 4820 ng/g | concentration at 8 h [3, 5]: 15200 ng/g | concentration at 12 h [3, 5]: 2220 ng/g | concentration at 24 h [3, 5]: 44.8 ng/g | Cmax ([3]; male, C57BL/6, mouse, total colon tissue, oral 10 mg/kg, total colon, read-out: Cmax C (total colon)): 15200 ng/g | Systemic plasma exposure following oral administration ([3]; oral 10 mg/kg, plasma, in words): very low | AUC0-24 h C (total colon) ([3]; oral 10 mg/kg, total colon): 97,062 h · ng/g | Colonic concentrations following oral administration ([3]; oral 10 mg/kg, total colon, in words): substantial colonic concentrations
